We go through six molecules from patent US11491192B2, “Treatment and prevention of pathogenic bacterial overgrowth using butyrate-producing bacteria” (THE CLEVELAND CLINIC FOUNDATION, priority 2018, dated 2022).

One experiment relates to F. prausnitzii. Description: Brucella broth dilution MIC of common antibiotics. In kind it is cell-based, Faecalibacterium prausnitzii. Conditions: unit assumed. The procedure:
This strain was chosen because it was isolated from human feces, and based on its ability to hydrolyze PS, yield butyrate, and utilize lactate. Belenguer et al., Applied Environmental Microbiology, 72:3593-3599 (2006) Bacteria was grown in conditions and medium as recommended by ATCC, briefly at 37° C. in anaerobic gas biological mix of 80% nitrogen, 10% carbon dioxide, 10% hydrogen, ATCC pre-reduced chopped meat broth (ATCC 1703). Overnight culture of FP was lyophilized on […] system and reconstituted in pre-reduced sterile phosphate buffered saline (PBS) just prior to treatment. Brucella broth dilution MIC of common antibiotics for FP and CD strains were determined using standard methods for susceptibility testing of anaerobic bacteria (Table 1).
A general note: In broth dilution the organism is exposed to a series of concentrations in liquid medium.

In another experiment the test system is C. difficile. Description: Brucella broth dilution MIC of common antibiotics. In kind it is cell-based, Clostridium difficile. To be noted: unit assumed.
Experiment [1] deals with sodium-coupled butyrate transporter, butyrate receptor, tight junction proteins and NHE3. To be noted: supplementation during broad spectrum antibiotic treatment in mice; Cresci et al. 2013; cited from earlier work.
The mark [2] stands for this setting: Brucella broth dilution, FP strain used in this study (ATCC 27766).
Setting [3] is: Brucella broth dilution, CD strain used in this study (VA17).

For the molecule `CO[C@@]1(NC(=O)Cc2cccs2)C(=O)N2C(C(=O)O)=C(COC(N)=O)CS[C@@H]21` [Cefoxitin], the F. prausnitzii MIC in the experiment on F. prausnitzii (setting [2]) was < 2 µg/mL. Further, in the experiment on C. difficile (setting [3]), the C. difficile MIC stood at 250 µg/mL.

For Piperacillin/Tazaba, the F. prausnitzii MIC in the experiment on F. prausnitzii (setting [2]) was 8 µg/mL. Besides, the C. difficile MIC in the experiment on C. difficile (setting [3]) stood at 15.6 µg/mL.

As for `Cc1ncc([N+](=O)[O-])n1CCO` [Metronidazole], in the experiment with F. prausnitzii (setting [2]), the F. prausnitzii MIC was < 2 µg/mL. The C. difficile MIC with C. difficile (setting [3]) is < 2 µg/mL.

On to `CN[C@H](CC(C)C)C(=O)N[C@H]1C(=O)N[C@@H](CC(N)=O)C(=O)N[C@H]2C(=O)N[C@H]3C(=O)N[C@H](C(=O)N[C@H](C(=O)O)c4cc(O)cc(O)c4-c4cc3ccc4O)[C@H](O)c3ccc(c(Cl)c3)Oc3cc2cc(c3O[C@@H]2O[C@H](CO)[C@@H](O)[C@H](O)[C@H]2O[C@H]2C[C@](C)(N)[C@H](O)[C@H](C)O2)Oc2ccc(cc2Cl)[C@H]1O` [Vancomycin], for which the F. prausnitzii MIC in the experiment with F. prausnitzii was < 2 µg/mL. In the experiment on C. difficile, the C. difficile MIC was < 2 µg/mL.

`CCCC(=O)OCC(COC(=O)CCC)OC(=O)CCC` [tributyrin]: the “intestinal losses of sodium-coupled butyrate transporter, butyrate receptor, tight junction proteins and NHE3” value in experiment [1] was “protects against intestinal losses”.

As for `CCC[C@@H]1C[C@@H](C(=O)N[C@@H]([C@H]2O[C@H](SC)[C@H](O)[C@@H](O)[C@H]2O)[C@H](C)Cl)N(C)C1` [Clindamycin], in the experiment with C. difficile (setting [3]), the C. difficile MIC was 500 µg/mL.
